For one compound, IC50 results are on record in ChEMBL document CHEMBL5131569, “SAGE-718: A First-in-Class N-Methyl-d-Aspartate Receptor Positive Allosteric Modulator for the Potential Treatment of Cognitive Impairment” (J Med Chem, 2022).

The target of the test is T1, Cytochrome P450 2B6 (Homo sapiens, UniProt P20813).
T1 sequence (P20813 whole entry): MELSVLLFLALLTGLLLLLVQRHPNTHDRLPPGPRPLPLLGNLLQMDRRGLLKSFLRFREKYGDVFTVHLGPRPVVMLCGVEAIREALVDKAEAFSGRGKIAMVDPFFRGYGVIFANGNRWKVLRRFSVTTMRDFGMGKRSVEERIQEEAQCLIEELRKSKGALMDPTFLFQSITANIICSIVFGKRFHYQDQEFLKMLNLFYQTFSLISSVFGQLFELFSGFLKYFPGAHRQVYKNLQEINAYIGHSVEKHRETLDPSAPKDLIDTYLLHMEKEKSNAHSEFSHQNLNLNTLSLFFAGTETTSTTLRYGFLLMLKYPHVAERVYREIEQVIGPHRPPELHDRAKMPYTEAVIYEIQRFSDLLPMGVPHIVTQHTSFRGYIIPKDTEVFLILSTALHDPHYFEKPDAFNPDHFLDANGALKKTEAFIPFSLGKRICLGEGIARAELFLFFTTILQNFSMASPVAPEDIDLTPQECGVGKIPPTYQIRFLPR
Put plainly: Inhibition of CYP2B6 (unknown origin). It counts as ADME.

By IC50 is commonly meant the midpoint of a concentration-inhibition curve. As for `C[C@H](CC[C@](C)(O)C(F)(F)F)[C@H]1CC[C@H]2[C@@H]3CC=C4C[C@@](C)(O)CC[C@]4(C)[C@H]3CC[C@]12C` [DALZANEMDOR], the IC50 was more than 100 µM.
